Several values for one entry are separate records, joined by “and”; a condition that tells them apart may be missing. Equal entries are not always repeated.
Experiments:
Format in all cases: in vivo
[1] = tested on: Cheatgrass, Bromus tectorum; assay: Petri dish seed germination test on cheatgrass, with Colby analysis; conditions: for %_Germ—14DAP: Petri Dish Run 1, germination at day 14; for %_Germ11DAP: Petri Dish Run 2, germination at day 11, repetitions R1-R3; for %_Germ_8DAP: germination at day 8, Run1 R0 and Run2 R1-R3
Procedure: (§1) Place 10 seeds on moistened filter paper in 100 mm petri dishes, with three petri dishes per treatment. Using a pipette, apply 0.01 mL of the solution (water for controls, Pseudomonas for treated) evenly over the top surface of each seed. For the ethylene inhibitor treatment, place a small aluminum weigh boat containing lmL inhibitor solution in the petri dish. Ethylene inhibitor solution should be replaced daily. Cover seeds with another sheet of moistened filter paper before closing the petri dish. As needed, moisten the filter paper throughout the experiment with 1 mL of water at a time. Allow plants to germinate and grow for 11 days, removing the filter paper on day 5. Record the number of seeds germinated each day. Image analysis may be used at the end of the experiment to record total root and shoot growth.
One species: Cheatgrass, Bromus tectorum
(§2) Three timings of Pseudomonas fluorescens strain D7 application: 0, 3, and 7 days after planting
(§3) Four seed treatments: water (control), Pseudomonas fluorescens strain D7, 1-MCP, Pseudomonas fluorescens strain D7 and 1-MCP combination
Run 1: 12 seeds/dish, 1 petri dish/treatment combo
Run 2: 10 seeds/dish, 3 petri dishes/treatment combo
A Colby Analysis was carried out for the data obtained in Example 2. The first data set is shown in Table 1 below, where cheatgrass (Bromus tectorum) was treated with Pseudomonas fluorescens strain D7 (D7) and 1-methylcyclopropene (1-MCP) alone or in combination at days 0, 3, and 7 of the treatment period. The percentage of germination was then determined at day 14 of the treatment period.
The Colby equation is a standard method for determining the presence of synergy. The Colby equation is as follows:
[formula] • wherein X and Y are the effects of the active agents (e.g., Pseudomonas fluorescens strain D7 (D7) and 1-methylcyclopropene (1-MCP)) applied alone (expressed as % of control).
The standard Colby equation interpretation is: If Observed Value is greater than the Expected Value, synergy exists. However, based on the goal of reducing germination in this study, the appropriate interpretation here is: If the Observed Value is less than the Expected Value, synergy.

Tall Fescue = assay: Petri dish seed germination test on Tall Fescue; conditions: Tall Fescue seeds
Procedure: as §1, with “1 mL” for “lmL”
(§4) Two species: Tall Fescue and Kentucky Bluegrass
as §2, §3
(§5) Twelve seeds/petri dish (TF), 40 seeds/petri dish (KB)×3 petri dishes/treatment combination

Kentucky Bluegrass = assay: Petri dish seed germination test on Kentucky Bluegrass; conditions: Kentucky Bluegrass seeds
Procedure: as §1, with “1 mL” for “lmL”
as §4, §2, §3, §5

[2] = Petri Dish Run 2 at Day 11, treatment Day 0, mean of repetitions
[3] = Petri Dish Run 2 at Day 11, treatment Day 3, mean of repetitions
[4] = Petri Dish Run 2 at Day 11, treatment Day 7, mean of repetitions
[5] = treatment Day 0, day 8, mean of Run1 and Run2 repetitions
[6] = treatment Day 3, day 8, mean of Run1 and Run2 repetitions
[7] = treatment Day 7, day 8, mean of Run1 and Run2 repetitions

| Compound | %_Germ—14DAP ([1]; treatment Day 0) [%] | %_Germ—14DAP ([1]; treatment Day 3) [%] | %_Germ—14DAP ([1]; treatment Day 7) [%] | Day 8% Germ Mean [1, 2] [%] | Day 8% Germ Mean [1, 3] [%] | Day 8% Germ Mean [1, 4] [%] | Day 8% Germ Mean [1, 5] [%] | Day 8% Germ Mean [1, 6] [%] | Day 8% Germ Mean [1, 7] [%] | further results |
| --- | --- | --- | --- | --- | --- | --- | --- | --- | --- | --- |
| CC1=CC1 [1-MCP, 1-methylcyclopropene, reference compound] | 75.00 | 25.00 | 100.00 | 86.67 | 83.33 | 83.33 | 81.25 | 61.25 | 75.83 | %_Germ11DAP ([1]; treatment Day 0, listed as 1-MCP alone): 80% and 90%; %_Germ11DAP ([1]; treatment Day 3, listed as 1-MCP alone): 80% and 90%; %_Germ11DAP ([1]; treatment Day 7, listed as 1-MCP alone): 100% and 70% and 80%; %_Germ_8DAP ([1]; treatment Day 0, listed as MCP): 75.00% and 80.0% and 90.0%; %_Germ_8DAP ([1]; treatment Day 7, listed as MCP): 83.33% and 90.0% and 60.0% and 70.0% |
| Pseudomonas fluorescens strain D7 | 58.33 | 83.33 | 75.00 | 56.67 | 76.67 | 73.33 | 31.67 | 73.33 | 65.00 | effect on germination (Tall Fescue): did not affect germination; %_Germ11DAP ([1]; treatment Day 0, listed as D7 Alone): 60% and 50%; %_Germ11DAP ([1]; treatment Day 3, listed as D7 Alone): 100% and 60% and 70%; %_Germ11DAP ([1]; treatment Day 7, listed as D7 Alone): 90% and 60% and 70%; influence of application time on germination outcomes ([1]; application 0, 3 or 7 days after planting): early application being the most effective; %_Germ_8DAP ([1]; treatment Day 3): 83.33% and 100.0% and 60.0% and 50.0%; %_Germ_8DAP ([1]; treatment Day 7): 50.00% and 80.0% and 60.0% and 70.0%; effect on germination (Kentucky Bluegrass): did not affect germination |

Source: US20260262655A1, “INHIBITION OF SEED GERMINATION USING A COMBINATION OF BIOLOGICAL AND CHEMICAL INHIBITORS OF ETHYLENE” (Verdesian Life Sciences U.S., LLC, priority 2023, published 2026)
